Data as given in patent US10281476B2, “Methods to identify modulators of RyR calcium channels” (REGENTS OF THE UNIVERSITY OF MINNESOTA, priority 2013, dated 2019).
“Also recorded” adds a separate entry of the source. Where no end group is shown, it is not given here.

How the values were obtained:
[1] = target: T1, RyR2 (Rattus norvegicus, UniProt B0LPN4); assay: HF647-DPc10 wash-in kinetics by FRET from F-FKBP (donor quench) in permeabilized myocytes; type: binding; parameters: These fluorescent proteins were added to saponin-permeabilized myocytes with or without pre-equilibration with saturating DPc10 concentration; endogenous in cells; host or cells: saponin-permeabilized rat ventricular myocytes; conditions: for effect on rate of HF647-DPc10 binding (τwash-in): H2O2 50 μmol/L pre-incubation, dantrolene 1 μmol/L in H2O2-treated myocytes
Description: The FRET pair we used in this consisted of ALEXA FLUOR™ 488 (donor) covalently attached to FKBP12.6 (F-FKBP) and HiLyte Fluor™647 (acceptor) covalently attached to DPc10 (F-DPc10).^8 To detect F-DPc10 specifically bound to RyR2, we measured donor fluorescence intensities through a 500-530 nm bandpass filter before and after equilibration with acceptor (donor quenching method). The FRET efficiency (E) was calculated according to: E=1-FDA/FD, Where FD and FDA are the fluorescence intensities of the donor-only and donor-plus-acceptor samples, respectively (Oda et al., Circ Res. 2013;112:487-497). Statistics
Next we tested whether RyR2 oxidation would increase HF647-DPc10 access. Here, we used FRET between F-FKBP as a donor and HF647-DPc10 as an acceptor, to detect DPc10 that specifically binds at RyR2 (Oda et al., Circ Res. 2013; 112:487-497).
Target sequence in this assay (B0LPN4 whole entry): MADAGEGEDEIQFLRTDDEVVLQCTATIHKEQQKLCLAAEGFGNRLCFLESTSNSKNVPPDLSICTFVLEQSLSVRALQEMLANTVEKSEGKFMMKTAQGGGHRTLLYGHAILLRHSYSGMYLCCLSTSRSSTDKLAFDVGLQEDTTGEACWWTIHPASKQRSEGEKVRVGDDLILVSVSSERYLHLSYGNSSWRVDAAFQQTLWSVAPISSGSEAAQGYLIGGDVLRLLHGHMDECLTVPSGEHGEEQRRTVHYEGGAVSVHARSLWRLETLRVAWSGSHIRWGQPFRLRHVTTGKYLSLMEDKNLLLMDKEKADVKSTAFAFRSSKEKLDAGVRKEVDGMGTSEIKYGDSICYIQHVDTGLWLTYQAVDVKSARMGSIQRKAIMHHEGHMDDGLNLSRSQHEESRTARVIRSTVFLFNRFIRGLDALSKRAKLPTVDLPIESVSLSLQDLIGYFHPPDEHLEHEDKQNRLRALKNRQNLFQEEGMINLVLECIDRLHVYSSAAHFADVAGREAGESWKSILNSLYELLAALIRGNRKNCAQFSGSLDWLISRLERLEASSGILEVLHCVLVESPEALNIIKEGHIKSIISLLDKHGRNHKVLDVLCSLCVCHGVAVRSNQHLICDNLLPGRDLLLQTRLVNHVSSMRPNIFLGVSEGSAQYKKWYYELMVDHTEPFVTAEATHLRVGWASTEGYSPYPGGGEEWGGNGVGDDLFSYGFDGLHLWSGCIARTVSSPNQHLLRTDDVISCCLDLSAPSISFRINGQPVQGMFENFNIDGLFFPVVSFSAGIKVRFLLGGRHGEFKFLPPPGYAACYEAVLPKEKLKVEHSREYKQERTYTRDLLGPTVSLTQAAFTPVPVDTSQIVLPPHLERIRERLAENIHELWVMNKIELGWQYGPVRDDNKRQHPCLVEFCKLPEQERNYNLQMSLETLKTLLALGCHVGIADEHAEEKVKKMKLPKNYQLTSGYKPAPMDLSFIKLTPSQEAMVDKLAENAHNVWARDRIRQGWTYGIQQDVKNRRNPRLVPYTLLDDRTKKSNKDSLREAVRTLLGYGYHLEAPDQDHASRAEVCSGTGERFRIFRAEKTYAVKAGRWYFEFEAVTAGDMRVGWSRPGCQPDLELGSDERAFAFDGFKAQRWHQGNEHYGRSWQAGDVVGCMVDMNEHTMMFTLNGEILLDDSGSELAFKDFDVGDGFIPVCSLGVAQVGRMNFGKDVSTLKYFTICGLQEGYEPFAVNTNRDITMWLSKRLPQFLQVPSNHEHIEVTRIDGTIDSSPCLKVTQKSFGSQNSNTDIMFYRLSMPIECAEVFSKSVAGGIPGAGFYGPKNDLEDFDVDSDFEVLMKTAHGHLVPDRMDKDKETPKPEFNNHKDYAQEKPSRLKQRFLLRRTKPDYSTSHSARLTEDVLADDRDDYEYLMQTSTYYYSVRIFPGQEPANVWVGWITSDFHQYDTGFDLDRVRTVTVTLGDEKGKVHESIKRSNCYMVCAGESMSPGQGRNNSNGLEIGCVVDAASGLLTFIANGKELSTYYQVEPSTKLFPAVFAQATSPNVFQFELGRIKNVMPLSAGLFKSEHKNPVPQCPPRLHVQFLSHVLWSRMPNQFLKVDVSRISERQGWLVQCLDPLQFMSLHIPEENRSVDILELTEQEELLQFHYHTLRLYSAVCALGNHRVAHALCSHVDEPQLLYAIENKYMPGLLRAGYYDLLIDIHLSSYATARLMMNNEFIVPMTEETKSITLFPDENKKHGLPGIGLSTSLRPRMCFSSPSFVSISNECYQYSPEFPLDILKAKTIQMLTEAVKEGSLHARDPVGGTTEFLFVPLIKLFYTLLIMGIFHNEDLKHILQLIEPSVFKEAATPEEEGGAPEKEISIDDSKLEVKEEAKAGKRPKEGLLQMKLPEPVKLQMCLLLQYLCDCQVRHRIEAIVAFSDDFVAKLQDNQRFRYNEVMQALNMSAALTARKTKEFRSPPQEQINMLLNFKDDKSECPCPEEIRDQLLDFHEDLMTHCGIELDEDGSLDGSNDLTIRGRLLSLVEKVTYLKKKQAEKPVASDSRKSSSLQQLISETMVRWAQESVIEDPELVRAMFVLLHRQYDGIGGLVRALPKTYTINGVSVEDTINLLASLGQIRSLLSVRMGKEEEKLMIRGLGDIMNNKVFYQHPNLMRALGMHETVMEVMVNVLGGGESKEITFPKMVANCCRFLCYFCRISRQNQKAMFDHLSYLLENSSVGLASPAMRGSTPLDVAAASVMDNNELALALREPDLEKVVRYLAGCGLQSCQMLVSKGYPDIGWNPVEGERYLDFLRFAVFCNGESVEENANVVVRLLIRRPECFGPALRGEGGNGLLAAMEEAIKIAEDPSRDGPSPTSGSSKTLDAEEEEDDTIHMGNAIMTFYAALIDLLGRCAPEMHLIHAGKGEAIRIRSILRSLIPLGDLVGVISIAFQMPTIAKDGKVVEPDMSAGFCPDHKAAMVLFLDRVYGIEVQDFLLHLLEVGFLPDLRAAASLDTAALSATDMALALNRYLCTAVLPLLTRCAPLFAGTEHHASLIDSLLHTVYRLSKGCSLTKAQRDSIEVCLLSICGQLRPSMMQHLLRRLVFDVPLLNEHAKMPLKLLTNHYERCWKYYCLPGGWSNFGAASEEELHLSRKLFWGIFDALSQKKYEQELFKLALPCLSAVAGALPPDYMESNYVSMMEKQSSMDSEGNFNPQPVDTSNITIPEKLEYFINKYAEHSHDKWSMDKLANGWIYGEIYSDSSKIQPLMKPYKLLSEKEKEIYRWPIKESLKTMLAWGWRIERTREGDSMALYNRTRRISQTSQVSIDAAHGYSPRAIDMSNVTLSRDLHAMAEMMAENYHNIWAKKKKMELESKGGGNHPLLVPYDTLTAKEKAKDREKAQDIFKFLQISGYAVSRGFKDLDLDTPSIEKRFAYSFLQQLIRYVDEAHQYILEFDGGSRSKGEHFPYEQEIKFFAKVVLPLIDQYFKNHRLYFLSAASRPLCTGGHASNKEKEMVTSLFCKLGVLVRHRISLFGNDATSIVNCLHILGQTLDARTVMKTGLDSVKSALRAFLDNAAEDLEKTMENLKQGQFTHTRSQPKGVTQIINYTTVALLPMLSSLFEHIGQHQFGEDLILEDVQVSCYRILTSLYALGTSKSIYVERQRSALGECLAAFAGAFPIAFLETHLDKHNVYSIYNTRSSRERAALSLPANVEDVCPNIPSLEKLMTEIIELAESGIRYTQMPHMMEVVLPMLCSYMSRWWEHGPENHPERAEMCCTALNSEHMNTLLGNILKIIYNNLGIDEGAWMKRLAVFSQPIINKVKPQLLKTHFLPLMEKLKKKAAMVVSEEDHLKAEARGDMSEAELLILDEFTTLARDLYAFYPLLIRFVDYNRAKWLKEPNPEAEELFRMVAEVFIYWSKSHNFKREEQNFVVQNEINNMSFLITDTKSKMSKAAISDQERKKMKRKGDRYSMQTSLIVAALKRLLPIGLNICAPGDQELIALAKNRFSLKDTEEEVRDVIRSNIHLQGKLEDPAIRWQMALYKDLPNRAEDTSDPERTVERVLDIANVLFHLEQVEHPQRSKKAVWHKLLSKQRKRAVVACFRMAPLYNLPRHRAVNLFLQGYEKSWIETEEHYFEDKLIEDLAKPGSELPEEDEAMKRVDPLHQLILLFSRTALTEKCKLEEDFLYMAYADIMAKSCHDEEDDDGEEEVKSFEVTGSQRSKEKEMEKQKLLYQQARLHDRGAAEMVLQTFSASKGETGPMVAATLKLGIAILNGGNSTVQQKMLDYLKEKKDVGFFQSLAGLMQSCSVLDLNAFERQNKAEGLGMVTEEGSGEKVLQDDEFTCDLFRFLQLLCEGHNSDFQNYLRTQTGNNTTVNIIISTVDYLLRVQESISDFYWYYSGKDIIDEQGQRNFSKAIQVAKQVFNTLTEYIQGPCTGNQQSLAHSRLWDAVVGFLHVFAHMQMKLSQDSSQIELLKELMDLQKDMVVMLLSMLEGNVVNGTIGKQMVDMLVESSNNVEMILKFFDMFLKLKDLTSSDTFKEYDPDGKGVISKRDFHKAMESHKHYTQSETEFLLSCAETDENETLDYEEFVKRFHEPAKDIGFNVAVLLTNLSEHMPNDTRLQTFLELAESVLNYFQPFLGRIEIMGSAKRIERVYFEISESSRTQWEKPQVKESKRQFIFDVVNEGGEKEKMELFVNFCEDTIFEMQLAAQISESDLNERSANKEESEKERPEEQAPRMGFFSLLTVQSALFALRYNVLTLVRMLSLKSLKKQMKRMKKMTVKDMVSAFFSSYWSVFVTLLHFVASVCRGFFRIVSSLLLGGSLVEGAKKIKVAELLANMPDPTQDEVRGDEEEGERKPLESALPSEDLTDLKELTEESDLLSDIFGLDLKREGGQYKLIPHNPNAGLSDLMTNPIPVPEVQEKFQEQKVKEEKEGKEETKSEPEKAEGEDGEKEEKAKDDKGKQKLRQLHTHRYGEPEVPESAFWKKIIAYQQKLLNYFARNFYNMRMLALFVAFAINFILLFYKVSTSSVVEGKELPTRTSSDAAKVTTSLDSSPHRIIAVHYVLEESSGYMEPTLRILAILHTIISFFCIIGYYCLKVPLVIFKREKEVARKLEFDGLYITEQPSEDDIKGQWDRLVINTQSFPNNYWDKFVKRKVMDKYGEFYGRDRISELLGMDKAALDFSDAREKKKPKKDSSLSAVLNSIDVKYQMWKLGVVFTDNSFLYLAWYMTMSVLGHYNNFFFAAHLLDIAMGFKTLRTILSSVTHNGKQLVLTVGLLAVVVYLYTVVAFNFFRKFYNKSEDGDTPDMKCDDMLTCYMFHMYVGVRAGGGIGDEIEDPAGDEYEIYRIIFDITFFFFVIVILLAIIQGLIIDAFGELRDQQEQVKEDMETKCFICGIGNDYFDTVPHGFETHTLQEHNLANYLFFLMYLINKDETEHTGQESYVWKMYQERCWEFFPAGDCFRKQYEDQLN
Target sequence in this assay (P68106 with tags, fused parts or gaps T15C/C23A/C77I partner): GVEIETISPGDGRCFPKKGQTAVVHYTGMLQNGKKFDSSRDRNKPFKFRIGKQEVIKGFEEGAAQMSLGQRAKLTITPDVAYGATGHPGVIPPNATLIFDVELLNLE

[2] = target: T1, RyR2; assay: F-DPc10 wash-in and washout kinetics at the myocyte Z-line; type: binding; parameters: endogenous in cells; host or cells: saponin-permeabilized adult rat ventricular myocytes; conditions: for effect on HF647-DPc10 wash-out kinetics: dantrolene 1 μmol/L, NF-DPc10 5 μmol/L
Description: To characterize DPc10-binding kinetics at Z-lines, we performed F-DPc10 wash-in (500 nmol/L) and washout experiments in permeabilized myocytes (FIG. 10A). Association (τwash-in=79.0±3.2 minutes) and dissociation (τwashout=149.8±4.4 minutes) were very slow compared with similar FKBP12.6 measurements (Guo et al., Circ Res, 2010; 106:1743-1752). From the wash-in/washout measurements, we calculated the association and dissociation rates constants, kon and koff, respectively, according to the following equation: kwash-in=[F-DPc10]kon+koff where kwashout≈koff and k=1/τ (s^−1). Accordingly, kon=202±20 (L mol^−1 s^−1) and koff=0.11±0.01 (10^−3 s^−1). […] We repeated this kinetic analysis using FRET between FKBP12.6 and DPc10, thus assessing the RyR2-specific DPc10 binding (FIG. 11A AND 11B). […] Based on these kinetic and affinity analyses, we infer that most of the Z-line-specific DPc10 binding is to RyR2. This is also consistent with Bmax, which would imply ≈1 DPc10 per RyR2 monomer.
We were intrigued by the slow kwash-in and conducted measurements to further understand the basis of this slow association. We tested the hypothesis that at resting [Ca^2+]i, DPc10 access to its RyR2 binding site is sterically hindered. If the N-terminal and central domains are tightly zipped to each other, then this interaction may occlude the DPc10-binding site on the RyR2, thus limiting the kon for DPc10. Alternatively, a limiting factor may be the rate at which DPc10 adopts a conformation that can bind to RyR2. To discern between these mechanisms, we determined the effect of [F-DPc10] on τwash-in. If the small fraction of DPc10 in the right conformation limits binding rate, then τwash-in should be faster at higher [F-DPc10], according to Equation. […] Instead, a 10-fold increase in [F-DPc10] had no significant effect on the τwash-in, although it did increase Bmax (FIG. 10B). The same was seen when using FKBP12.6-DPc10 FRET to assess τwash-in with 0.5 vs 5 μmol/L HF647-DPc10 (FIG. 12A AND 12B).
In our working model, under resting conditions, the RyR2 closed state may be stabilized by the interaction between the N-terminal and central domain in the zipped state. We hypothesized that conditions that promote RyR2 opening might enhance the rate of unzipping and accelerate τwash-in for F-DPc10. To test this, we first monitored F-DPc10 wash-in at elevated Ca^2+ (500 nmol/L). However, the 13% faster mean τwash-in was not significant (FIG. 13A). […] Thus, we preincubated myocytes with ryanodine (100 μmol/L) plus caffeine ([…]), which are known to favor long RyR2 openings and were reported to cause RyR2 domain unzipping in HEK293 cells (Liu et al., J Cell Sci, 2010; 123: 1775-1784). Ryanodine+caffeine produced a 21% faster τwash-in (P=0.002; FIG. 13B). However, the most significant effect was seen after presaturating RyR2 with NF-DPc10 (and then NF-DPc10 washout with F-DPc10 present; FIG. 13A). […] Assuming that koff of NF-DPc10 is the same as for F-DPc10 and using Equation, the kon is increased by 3.2-fold by unzipping as a result of prebinding of NF-DPc10 to the RyR2. Our working hypothesis is that the RyR2 open state may increase the probability of an RyR2 shifting to the unzipped state and may allow faster F-DPc10 wash-in. It also seems that the RyR2 open state (favored by caffeine-ryanodine) differs from the unzipped state (bound with DPc10).
Both FKBP12.6 and CaM bind to the RyR2 and can reduce channel opening, which might alter DPc10 binding. […] Neither CaM nor FKBP12.6 pretreatment altered M-line F-DPc10 fluorescence (FIG. 15). […] We infer that CaM stabilizes the domain interaction between N-terminal and central domains in the zipped state and thereby may reduce DPc10 access to its binding site. To test for direct CaM-DPc10 interaction, we performed control FRET measurements between donor-labeled CaM and acceptor-labeled DPc10 in solution in the absence of RyR. The maximal FRET efficiency (<1%) ruled out direct CaM-DPc10 interaction. […]
Target sequence in this assay (B0LPN4 whole entry): as the sequence (B0LPN4 whole entry) above

effect on rate of HF647-DPc10 binding (τwash-in) [1]	effect on maximal extent of quench ([1]; dantrolene in H2O2-treated myocytes)	reduction of maximal HF647-DPc10 binding (Bmax) ([2]; 1 μmol/L dantrolene) [%]	faster τwash-in of F-DPc10 ([1]; after H2O2 treatment) [%]	Compound	effect on HF647-DPc10 wash-out kinetics [2]	acceleration of F-DPc10 association, by a factor of ([2]; after presaturating RyR2 with NF-DPc10, then washout with F-DPc10 present)	increase of kon of F-DPc10 ([2]; prebinding of NF-DPc10 to RyR2) [fold]	increase in kon of F-DPc10 ([2]; pretreatment with NF-DPc10)
restored; also recorded: reversed	reduced	74		O=C1CN(/N=C/c2ccc(-c3ccc([N+](=O)[O-])cc3)o2)C(O)=N1 [dantrolene]	had no effect			
significantly accelerated			50	OO [H2O2, hydrogen peroxide]				
				GFCPDHKAAMVLFLDRVYGIEVQDFLLHLLEVGFLP [DPc10]	accelerate	≈ 2	3.2	≈ 320%
